Experimental data published in patent US12576057B2, “Antibacterial and biofilm formation-inhibiting composition containing myristoleic acid as active ingredient” (RESEARCH COOPERATION FOUNDATION OF YEUNGNAM UNIVERSITY, priority 2020, dated 2026).
In brackets after ≈: the same amount, converted by molar mass. Where two headings read alike, the source gives them in different places.

How the values were obtained:
C. acnes ATCC 6919 [1] = assay: Quantification of extracellular polymeric substance (EPS); type: cell-based, Cutibacterium acnes; settings: 10 μg/ml, 96 h culture
Method: 6. Quantification of Extracellular Polymeric Substance (EPS)
For EPS quantification, C. acnes treated with control and myristoleic acid was cultured at 37° C. for 96 hours. After culture, the culture was centrifuged at 8,228×g for 10 minutes, and the supernatant was separated.
The cell pellet was washed with sterile PBS to remove the culture supernatant which is free of residual cells. 15 ml of an isotonic solution (10 mM Tris/HCl, pH 8.0, 10 mM EDTA, 2.5% NaCl) was added to the cell pellet, and the mixed wells were culture at 4° C. overnight.
After overnight culture, the cell suspension was shaken to be mixed for 5 minutes, followed by centrifugation at 8,228×g for 10 minutes. The supernatant containing EPS bound with the cells was separated from the cells. Cold ethanol was added to the supernatant in a ratio of 1:3 and left at −20° C. overnight.
After collecting the precipitated EPS by centrifugation at 4° C., 18,514×g for 30 minutes, the pellet was washed with 70% ethanol and dried. The dried EPS was weighed, and inhibition of EPS production by fatty acids was calculated by the following formula (Sivasankar et al., 2016). ([Control wt−Treated wt/Control wt]×100) 7. Hydrophobicity Analysis: Microbial Adherence to Hydrocarbon (MATH)

C. acnes ATCC 6919 [2] = assay: Crystal violet biofilm formation assay, C. acnes ATCC 6919; type: cell-based, Cutibacterium acnes; settings: for inhibition at 20 µg/mL / inhibition at 1 µg/mL: Cutibacterium acnes, ATCC6919, 96 h; for inhibition at 20 µg/mL / change in biofilm formation: 20 μg/ml; for inhibition at 20 µg/mL: 96 h culture in RCM, 96-well plate; for inhibition at 1 µg/mL: 1 μg/ml, 96 h, 96-well polystyrene plate, read-out: inhibitory effect on biofilm formation; for change in biofilm formation: 96 h culture
Method: 3. Crystal Violet Film Assay
Crystal violet assay was performed by the previously reported method (Lee et al., 2017b) to quantify biofilm formation.
To quantify the biofilm, planktonic growth was eliminated, the plate was washed three times with distilled water, and the biofilm attached to the well was stained with 0.1% crystal violet for 20 minutes. Thereafter, the plate was washed three times with sterile distilled water, and crystal violet was extracted using 95% ethanol, absorbance was measured at 570 nm using Multiskan EX microplate reader (Thermo Fisher Scientific, Waltham, MA), and the result was shown as an average value of at least 12 replicate wells.
Percentage for inhibition rate represents relative biofilm formation (100×biofilm formation with chemical/biofilm formation of untreated control).

C. acnes ATCC 6919 [3] = assay: Planktonic cell growth and MIC identification; type: cell-based, Cutibacterium acnes; settings: for MIC: after 96 hours of culture
Method: 2. Measurement of Planktonic Cell Growth and MIC Identification In order to identify the effect of fatty acids on the planktonic growth of C. acnes, a culture cultured for 96 hours in a 96-well plate was re-transplanted after undergoing dilution in a ratio of 1:50 and then treated with fatty acids of different concentrations. Plates were cultured under anaerobic condition at 37° C. and maintained using an anaerobic pouch (Fisher Scientific, Pittsburgh, USA). After 96 hours of culture, cell turbidity was checked at 600 nm using Optizen 2120UV spectrophotometer ([…] Co. Ltd., Daejeon, Korea).

C. acnes ATCC 6919 [4] = assay: Hydrophobicity analysis: microbial adherence to hydrocarbon (MATH); type: cell-based, Cutibacterium acnes; settings: for change of cell hydrophobicity: 10 and 20 μg/ml fatty acids, 96 h
Method: MATH analysis (Rosenberg et al., 1980) was performed to identify the effect of fatty acids on the attachability of C. acnes to hydrocarbons (toluene) and the cell surface hydrophobicity of C. acnes.
C. acnes were grown without fatty acids for 96 hours under anaerobic conditions at 37° C.
The OD values of all treated and untreated cultures were adjusted to OD 0.5±0.05, and an equal volume of toluene was added to 3 ml of the cell suspension, followed by stirring for 60 seconds.
After stirring, incubation of an aqueous solution was performed overnight at room temperature to completely remove the trace solvent. OD600 in the aqueous solution was observed and cell surface hydrophobicity (CSH) was evaluated by hydrophobicity index (HI) using the following formula. (HI=[1−(OD600 after vortexing/OD600 before vortexing)]×100) (Mattos-Guaraldi et al., 1999). 8. Identification of Anti-Viral Effect and Cytotoxicity of Myristoleic Acid in Nematode Model

C. acnes [5] = assay: Scanning electron microscopy of biofilm / EPS; type: cell-based, Cutibacterium acnes; settings: 10 μg/ml
Method: 5. Scanning Electron Microscopy
Production of extracellular polymeric substance (EPS) was detected by electron microscopy (SEM) by the previously reported method (Lee et al., 2011).
Briefly, C. acnes cells were inoculated in 96-well plates under conditions with or without fatty acids, and a nylon filter (0.4×0.4 mm square) was added to each well. Biofilms were grown on the nylon filters by culturing together for 96 hours without stirring under anaerobic conditions at 37° C.
Then, the biofilm cells on the piece of nylon filter were immobilized with 2.5% glutaraldehyde and 2% formaldehyde for 24 hours and sequentially immobilized with osmium tetroxide, followed by dehydration with ethanol series (50, 70, 80, 90, 95 and 100%) and isoamyl acetate.
After critical point drying, the cells on the filter were stopper-coated with to palladium/gold, and observed under an S-4100 scanning electron microscope (Hitachi, Tokyo, Japan) at a magnification of ×1000 to ×10,000 using an acceleration voltage of 15 kV.

C. acnes ATCC 6919 [6] = assay: Rapid killing (time-kill) experiment; type: cell-based, Cutibacterium acnes; settings: 100 μg/ml
Method: 4. Analysis of Rapid Killing of Acne Bacteria Using Fatty Acids To determine the killing time by fatty acids, a time-kill experiment was performed. Briefly, cultures of C. acnes ATCC 6919 grown in RCM broth (BD Difco™, Fisher Scientific, Pittsburgh, USA) at 37° C. under anaerobic conditions for 96 hours were diluted in a ratio of 1:50 with fresh RCM medium. The samples were treated with myristoleic acid (50 and 100 μg/ml) or lauric acid (50 and 100 μg/ml) and cultured at 37° C. under anaerobic conditions while stirring. At each time point, aliquots of treated cells were collected, and after performing appropriate dilutions, cells were smeared on RCM agar plates and incubated at 37° C. for 96 hours, followed by enumeration of CFUs, wherein each experiment was repeated.

[7] = system: C. elegans infected with C. acnes ATCC 6919; assay: C. elegans killing assay with C. acnes infection; type: in vivo; settings: 10 μg/ml, 4 days; 20% survived without treatment
Method: C. elegans killing assay was performed with a slight modification of the previously reported method (Beceiro et al., 2014). Briefly, assays were performed in 96-well plates.
Young adult nematodes (20-30) [fer-15(b26);fem-1(hc17)] were transferred to each well contained in an M9 solution. The untreated control and fatty acid-treated C. acnes cells were each added to separate wells containing 20 to 30 nematodes and incubated at 25° C.
Nematodes solely exposed to E. coli OP50 at CFU of 1×10^6 cells/ml were used as a control.
Viability was identified by exposing to LED or UV LED light for 10 to 30 seconds using the iRiS™ Digital Cell Imaging System (Logos BioSystems, South Korea) by the previously reported method (Rajasekharan et al., 2018). The experiments were repeated three times.

[8] = system: S. aureus ATCC 6538, S. aureus ATCC 25923, MRSA MW2, MRSA ATCC 33591, S. epidermidis ATCC 14990; assay: Biofilm formation of five Staphylococcus strains; type: cell-based, Staphylococcus aureus, Staphylococcus epidermidis
Source text: (§1) The antibacterial and anti-biofilm activity of myristoleic acid against five Staphylococcus aureus strains was identified, including two methicillin-sensitive S. aureus strains (MSSA; ATCC 25923 and ATCC 6538), two methicillin-resistant S. aureus strains (MRSA, MW2, and ATCC 33591), and S. epidermidis strains.

Staphylococcus strains = assay: MIC against Staphylococcus strains; type: cell-based, Staphylococcus aureus
Source text: as §1

uninfected C. elegans = assay: Chemical toxicity in uninfected C. elegans; type: in vivo; settings: increased to 500 μg/ml for 5 days, uninfected nematodes
Method: The toxicity of myristoleic acid was identified in […].
[…] was treated with myristoleic acid with various doses, and survival was checked every day for 5 consecutive days.
In addition, in order to identify the chemical toxicity of myristoleic acid, uninfected nematodes were exposed to different concentrations of myristoleic acid.

S. aureus ATCC 6538 = assay: Biofilm formation of S. aureus ATCC 6538; type: cell-based, Staphylococcus aureus
Source text: as §1

C. acnes [9] = settings: after 72 hours, previous report; cited from earlier work
[10] = Cutibacterium acnes, ATCC6919, 96 h, read-out: MIC

Row | Compound | EPS production (C. acnes ATCC 6919 [1]) | inhibition at 20 µg/mL (C. acnes ATCC 6919 [2]) | change of cell hydrophobicity (C. acnes ATCC 6919 [4]) | also measured
1 | CCCCCCCCCC(=O)O [decanoic acid] | no significant changes | > 60% |  | MIC (C. acnes ATCC 6919 [3]; [10]): 20 to 200 µg/mL (≈ 116 to 1160 µM)
2 | CCCCC/C=C\C/C=C\C/C=C\C/C=C\CCCC(=O)O [arachidonic acid] |  | > 60% |  | 
3 | CCCCCCCCCCCCCCCCCCCCCCC(=O)O [trichoic acid, tricosanoic acid] | no significant changes | > 60% | a little change in hydrophobicity | 
4 | CCCCC/C=C\C/C=C\CCCCCCCC(=O)O [linoleic acid] |  | > 60% | reduced cell hydrophobicity the most | 
5 | CCCC/C=C\CCCCCCCC(=O)O [myristoleic acid] | significant reduction in EPS production |  | reduced cell hydrophobicity the most | EPS production by SEM analysis (C. acnes [5]): reduction in EPS production; C. acnes cells killed (C. acnes ATCC 6919 [6]; in 1 hour): ≥ 99.999%; survival of C. elegans infected with C. acnes [7]: 70%; anti-biofilm activity ([8]; 5 Staphylococcus strains): strong anti-biofilm activity; inhibition at 50 µg/mL ([8]; ALL5, 50 μg/ml, all 5 strains, read-out: biofilm formation inhibitory effect): > 90%; hydrophobicity index (cells made hydrophilic) (C. acnes ATCC 6919 [4]; 10 μg/ml): > 20%; dose-dependent effect on hydrophobicity (C. acnes ATCC 6919 [4]; 5, 10, 15, or 20 μg/ml): clear-cut decrease in hydrophobicity in a dose-dependent manner; MIC (Staphylococcus strains): 150 µg/mL (≈ 663 µM); C. acnes biofilm formation (C. acnes ATCC 6919 [2]; <10 μg/ml): significantly inhibited; inhibition at 1 µg/mL (C. acnes ATCC 6919 [2]): ≥ 80%; MIC of myristoleic acid relative to lauric acid (times lower) (C. acnes ATCC 6919 [3]; 20 μg/ml vs 100 μg/ml): 5 times; MIC (C. acnes ATCC 6919 [3]; [10]): 20 to 200 µg/mL (≈ 88.4 to 884 µM); MIC (C. acnes ATCC 6919 [3]): 20 µg/mL (≈ 88.4 µM); planktonic cell growth (C. acnes ATCC 6919 [3]; increased to 10 μg/ml): did not reduce planktonic cell growth; toxicity to C. elegans (uninfected C. elegans): did not show toxicity
6 | CCCCCCCCCCCCCCCCC(=O)O [heptadecanoic acid] |  | > 60% | a little change in hydrophobicity | 
7 | CC/C=C\C/C=C\C/C=C\CCCCCCCC(=O)O [linolenic acid] |  | > 60% |  | 
8 | CCCCCCCCCCCCCCCCCC(=O)O [stearic acid] | no significant changes | > 60% | a little change in hydrophobicity | 
9 | CCCCCCC(=O)O [heptanoic acid] | no significant changes |  |  | change in biofilm formation (C. acnes ATCC 6919 [2]): very subtle changes in biofilm formation
10 | CCCCCC/C=C\CCCCCCCC(=O)O [cis-9-hexadecenoic acid, cis-9 hexadecenoic acid] | no significant changes |  | a little change in hydrophobicity | change in biofilm formation (C. acnes ATCC 6919 [2]): very subtle changes in biofilm formation
11 | CCCCCCCC/C=C\CCCCCCCCCCCC(=O)O [erucic acid] |  | > 60% |  | 
12 | CCCCCCCCCCC(=O)O [undecanoic acid] | significant reduction in EPS production | > 60% |  | MIC (C. acnes ATCC 6919 [3]; [10]): 20 to 200 µg/mL (≈ 107 to 1070 µM)
13 | CCCCCCCCC(=O)O [nonanoic acid] |  | > 60% |  | 
14 | CCCCCCCC/C=C\CCCCCCCC(=O)O [oleic acid] |  | > 60% |  | 
15 | CCCCCCCCCCCCCCCC(=O)O [palmitic acid] |  | > 60% |  | 
16 | CCCCCCCCCCCCCC(=O)O [myristic acid] |  | > 60% |  | 
17 | CCCCC(=O)O [valeric acid, pentanoic acid] |  |  |  | change in biofilm formation (C. acnes ATCC 6919 [2]): very subtle changes in biofilm formation
18 | CCCCCCCCCCCC(=O)O [lauric acid, reference compound] | significant reduction in EPS production |  | reduced cell hydrophobicity the most | killing of C. acnes cells (C. acnes ATCC 6919 [6]): did not effectively kill; anti-biofilm activity (S. aureus ATCC 6538): weak anti-biofilm activity; inhibition at 1 µg/mL (C. acnes ATCC 6919 [2]): ≥ 80%; MIC (C. acnes [9]): 60 µg/mL (≈ 300 µM)
